Test results published in patent US10053459B2, “Life-extending agent, life extension method using the life-extending agent, novel dual oxidase activator, method for activating dual oxidase, production of life-extending agent, and production of dual oxidase activator” (National University Corporation Nagoya University, priority 2014, dated 2018).
Where a name gives a salt, the structure may show the parent alone.

Experiments:
[1] = tested on: nematode C. elegans, wild-type; test: Life test (life assay) of nematode on medium containing the test substance; type: in vivo; conditions: for average life / life-extending effect: 5.0 mM in medium vs 0 mM, FIGS. 3 and 4
Procedure: Pyrroloquinoline quinone disodium salt was mixed with water and sodium hydroxide to obtain test sample concentrate 1 of pH 6. The content of the pyrroloquinoline quinone disodium salt in the test sample concentrate 1 was adjusted to 30 mM. The test sample concentrate 1 was autoclave-sterilized for use. […] Meanwhile, to each E. coli solution cultured in an LB medium (Luria-Bertani broth), the test sample concentrate 1 was added so as to attain the same concentration as that of the pyrroloquinoline quinone disodium salt in the medium of each of the prepared petri dishes. 100 μL of the obtained E. coli solution was seeded in a circular pattern of approximately 2 cm in diameter to the center of each petri dish. […] The petri dish was wrapped in Parafilm during storage. […] These individuals were excluded from the data. […] Petri dishes having media containing different concentrations of the acetone adduct were prepared by the same operation as in Example 1 except that the amount of the test sample concentrate 2 added was adjusted such that the concentration of the acetone adduct in each medium solution was 0 mM (Comparative Example 2) and 5.0 mM (Example 5). […] Petri dishes having media containing different concentrations of the IPQ trisodium salt were prepared by the same operation as in Example 1 except that the amount of the test sample concentrate 3 added was adjusted such that the concentration of the IPQ trisodium salt in each medium solution was 0 mM (Comparative Example 3) and 5.0 mM (Comparative Example 4).

[2] = Stability of test substance in the petri dishes used in the life test (LC analysis); type: physicochemical; conditions: for Test substance (%) / Main impurities: in petri dish medium used in the life test
Procedure: The analysis of PQQ sodium salt was conducted under analysis conditions given below. PQQ concentration and purity were measured by high-performance liquid chromatography under conditions shown below.
Apparatus: high-performance liquid chromatography, LC-2010 manufactured by Shimadzu Corp.
Column: YMC-Pack ODS-A, 150×4.6 mm I.D.
Measurement temperature: 40° C.
Detection: absorbance at 259 nm
Eluent: 30 mM acetic acid/70 mM ammonium acetate (pH 5.1)
The reduced pyrroloquinoline quinone, the acetone adduct of pyrroloquinoline quinone, and the IPQ trisodium salt in the petri dishes used in the life test were evaluated for their stability by liquid chromatography analysis (LC analysis). The liquid chromatography analysis can be conducted according to those described above.

[3] = tested on: nematode variant gas-1 (fc2); test: Life test using variant gas-1 (fc2); type: in vivo, C. elegans
Text: (§1) Grown-up individuals were used in the life assay.
(§2) The petri dish was wrapped in Parafilm during storage. […] These individuals were excluded from the data.

[4] = tested on: nematode line OB265bli-3 (e767); imEx144[bli-3genomic clone]; test: Life test using line OB265 bli-3 (e767); imEx144[bli-3genomic clone]; type: in vivo, C. elegans
Text: as §1, §2

[5] = tested on: nematode variant age-1 (hx546)
Procedure: (§3) 7.2 g of NaCl, 48 g of agar, 6 g of Bactopeptone (manufactured by Becton, Dickinson and Company), and water (2.4 L including the amount of the sample concentrate to be added) were added into each flask. The flask was autoclaved at 120° C. for 20 minutes or longer and then cooled until the surface temperature of the flask became approximately 45° C. To this flask, 60 mL of a 1 M potassium phosphate solution, 2.4 mL of a 1 M CaCl2 solution, 2.4 mL of a 1 M MgSO4 solution, 2.4 mL of a 750 mg/150 mL cholesterol solution, and a predetermined amount of the 30 mM test sample concentrate 1 were added to obtain a medium solution. The amount of the test sample concentrate 1 added was adjusted such that the concentration of the pyrroloquinoline quinone disodium salt in the medium solution was 0 mM (Comparative Example 1), 0.1 mM (Example 1), 1.0 mM (Example 2), 3.0 mM (Example 3), and 5.0 mM (Example 4). The flask was further cooled until the surface temperature of the flask reached 40 to 41° C. 14 mL of the medium solution was added to each polystyrene petri dish having a diameter of 6 cm and cooled to room temperature to prepare petri dishes having media containing different concentrations of the pyrroloquinoline quinone disodium salt.
(§4) In order to synchronize the ages of nematode individuals at the start of the experiment, parent nematodes were allowed to lay eggs and then removed, and individuals evenly grown for a given period of time after hatching were used. Specifically, five adults (individuals under incubation) were selected and transferred to each petri dish, which was then left at 20° C. for 2 hours (lay period), and the parent nematodes were removed. Then, the petri dish was left at 20° C. for 72 hours. The life test was started when the number of individuals per petri dish reached 10 to 20.
as §1
(§5) The individuals in each petri dish were transferred to a fresh petri dish every day. Information on date, the number of survivors, the number of deaths, the number of missing individuals, etc., was recorded in a score sheet. The petri dish was wrapped in Parafilm during storage. An individual was judged as being dead when no spontaneous behavior was seen and no response was found even by vibration stimulus or contact stimulus. Nematodes are often missing because of running out of the petri dish, being dried at the wall, crawling out from a gap in the medium, for example. Therefore, the number of missing individuals was recorded and excluded from the data. Individuals that died of the eclosion of their children in their bodies, which occurs frequently in certain variants, were recorded as BAG, and individuals that died of hernia were recorded as rupture.
(§6) Nematode variants can be used to determine how PQQ works. A plurality of petri dishes were prepared using the medium containing 5 mM PQQ prepared in Example 4. The life extension test was conducted in the same way as in Example 1 using the prepared petri dishes and each variant shown in Table 2. The results obtained without the addition of PQQ are indicated as 100 for a relative effect.

[6] = tested on: nematode variant bli-3 (e767), reduced activity of dual oxidase
Procedure: as §3, §4, §1, §5, §6

[7] = tested on: nematode variant bli-3 (im-10), reduced activity of dual oxidase
Procedure: as §3, §4, §1, §5, §6

[8] = tested on: nematode variant daf-2 (e1370)
Procedure: as §3, §4, §1, §5, §6

[9] = tested on: nematode variant nsy-1 (ky400)
Procedure: as §3, §4, §1, §5, §6

[10] = tested on: nematode variant pmk-3 (ok-169)
Procedure: as §3, §4, §1, §5, §6

[11] = tested on: nematode variant skn-1 (zu67)
Procedure: as §3, §4, §1, §5, §6

[12] = Stability of reduced PQQ in agar medium, preservation test (LC and UV spectrum analysis); type: physicochemical; conditions: 30° C. for 3 days
Procedure: Ultraviolet-visible spectra were measured using a UV spectrometer UV1800 manufactured by Shimadzu Corp.
Reduced PQQ was added to sterile water to prepare a 30 mM dispersion. This dispersion was added so as to make 5 mM in the composition for evaluation described above to prepare a petri dish. The preservation test was conducted at 30° C. for 3 days, followed by LC analysis and UV spectrum analysis. The reduced formed is converted to PQQ under neutral conditions. Therefore, the reduced state can be confirmed by detecting PQQ by the LC analysis and measuring the UV spectrum of a solution thereof in dimethyl sulfoxide. As a result of confirming the state of the reduced PQQ in an agar medium in this way, 86% of all PQQs maintained the reduced state.

[13] = 5 mM PQQ, result without PQQ = 100

O=C(O)c1cc2c(=O)c3ncn4c(C(=O)O)cc(C(=O)O)c(c2[nH]1)c34 [IPQ, trisodium salt of imidazoloquinone, reference compound]
average life / life-extending effect [1]: small life-extending effect | Test substance (%) [2]: IPQ100%

O=C(O)c1cc(C(=O)O)c2c(n1)C(=O)C(=O)c1cc(C(=O)O)[nH]c1-2 [PQQ, Pyrroloquinoline quinone disodium salt]
average life (survival rate vs rearing days after becoming adults) ([1]; 0.1, 1.0, 3.0, 5.0 mM in medium vs 0 mM, FIGS. 1 and 2): tends to extend the average life | Average life after becoming adult ([1]; wild-type, 5 mM PQQ in medium): 15.0 ± 0.6 days | Relative value ([1]; wild-type, 5 mM PQQ, result without PQQ = 100): 140 | Average life after becoming adult ([3]; 5 mM PQQ in medium): 14.7 ± 0.9 days | Relative value [3, 13]: 111 | Average life after becoming adult ([4]; OB265bli-3 (e767), imEx144[bli-3genomic clone], 5 mM PQQ in medium): 19.8 ± 0.3 days | Relative value ([4]; OB265bli-3 (e767), imEx144[bli-3genomic clone], 5 mM PQQ, result without PQQ = 100): 122 | life-extending effect (in words) ([4]; bli-3 gene-deficient line transfected with the bli-3 gene, Example 15, 5 mM PQQ): extended | Average life after becoming adult ([5]; 5 mM PQQ in medium): 23.4 ± 0.9 days | Relative value [5, 13]: 123 | Average life after becoming adult ([6]; 5 mM PQQ in medium): 13.5 ± 0.4 days | Relative value [6, 13]: 87 | Average life after becoming adult ([7]; 5 mM PQQ in medium): 11.7 ± 0.4 days | Relative value [7, 13]: 99 | Average life after becoming adult ([8]; 5 mM PQQ in medium): 34.6 ± 0.9 days | Relative value [8, 13]: 121 | Average life after becoming adult ([9]; nsy-1 (ky400), 5 mM PQQ in medium): 16.0 ± 0.3 days | Relative value ([9]; nsy-1 (ky400), 5 mM PQQ, result without PQQ = 100): 104 | life-extending effect (in words) ([9]; nsy-1 variant, 5 mM PQQ): strongly suppressed | Average life after becoming adult ([10]; pmk-3 (ok-169), 5 mM PQQ in medium): 17.9 ± 0.4 days | Relative value ([10]; pmk-3 (ok-169), 5 mM PQQ, result without PQQ = 100): 90 | life-extending effect (in words) ([10]; pmk-3 variant, 5 mM PQQ): strongly suppressed | Average life after becoming adult ([11]; skn-1 (zu67), 5 mM PQQ in medium): 12.8 ± 0.2 days | Relative value ([11]; skn-1 (zu67), 5 mM PQQ, result without PQQ = 100): 96 | life-extending effect (in words) ([11]; skn-1 gene variant, 5 mM PQQ): strongly suppressed

O=C(O)c1cc(C(=O)O)c2c(n1)c(O)c(O)c1cc(C(=O)O)[nH]c12 [Reduced pyrroloquinoline quinone, reduced pyrroloquinoline quinone]
Main impurities [2]: IPQ | Test substance (%) [2]: Reduced pyrroloquinoline quinone 65% | Main impurities ([12]; 5 mM in agar medium petri dish): PQQ | Test substance (%) ([12]; 5 mM in agar medium petri dish, LC and UV analysis): Reduced pyrroloquinoline quinone 85% | share of all PQQs that maintained the reduced state ([12]; 5 mM in agar medium, LC and UV spectrum analysis): 86%

CC(=O)CC1(O)C(=O)c2cc(C(=O)O)[nH]c2-c2c(C(=O)O)cc(C(=O)O)nc21 (stereo not drawn) [acetone adduct of pyrroloquinoline quinone]
average life / life-extending effect [1]: tends to extend the average life | Main impurities [2]: PQQ | Test substance (%) [2]: 92% | detection of IPQ (formed by reaction with amino acids of the medium) ([2]; petri dish medium with peptone): not detected
